Experimental data: patent US20150175530A1, “ANTIBACTERIAL AGENTS” (priority 2012, published 2015)
Values after ≈ are worked out from the molar mass of the structure shown. Read-outs that look alike come from different tables or passages of the source.

Tests used:
[1] = test system: bacterial isolates (clinical isolates and ATCC quality control strains); test: Minimum Inhibitory Concentrations (MICs) by broth microdilution (CLSI susceptibility testing); format: cell-based
Protocol: Bacterial isolates were cultivated from −70° C. frozen stocks by overnight passages at 35° C. in ambient air on Mueller-Hinton agar (Beckton Dickinson, Franklin Lakes, N.J.). Clinical isolates tested were obtained from various geographically diverse hospitals in the US and abroad (Focus Diagnostics, Herndon, Va. and JMI, North Liberty, Iowa). Quality control strains were from the American Type Culture Collection (ATCC; Rockville, Md.).
Minimum Inhibitory Concentrations (MICs) were determined by the broth microdilution method in accordance with the Clinical and Laboratory Standards Institute (CLSI) guidelines. In brief, organism suspensions were adjusted to a 0.5 McFarland standard to yield a final inoculum between 3×10^5 and 7×10^5 colony-forming units (CFU)/mL. Drug dilutions and inocula were made in sterile, cation adjusted Mueller-Hinton Broth (Beckton Dickinson). An inoculum volume of 100 μL was added to wells containing 100 μL of broth with 2-fold serial dilutions of drug. All inoculated microdilution trays were incubated in ambient air at 35° C. for 18-24 h. Following incubation, the lowest concentration of the drug that prevented visible growth (OD600 nm<0.05) was recorded as the MIC. Performance of the assay was monitored by the use of laboratory quality-control strains and levofloxacin, a compound with a defined MIC spectrum, in accordance with CLSI guidelines.

[2] = test system: 3 P. aeruginosa strains (APAE001, APAE002, APAE006); test: Protein binding: fold change in MIC in the presence of 2% HSA and 0.05% AGP, Geomean of 3 strains; format: cell-based, Pseudomonas aeruginosa; settings: MIC in the presence of 2% HSA and 0.05% AGP divided by MIC in the absence; Geomean of 3 P. aeruginosa strains (APAE001, APAE002, APAE006)
Protocol: The effect of human serum albumin (HSA) and α-1-acid glycoprotein (AGP) from human plasma, which are known to nonspecifically bind to certain antibiotics and thereby reduce their activity (Banéres-Roquet et al. 2009 “Use of a Surface Plasmon Resonance Method to Investigate Antibiotic and Plasma Protein Interactions” Antimicrob. Agents and Chemother. 53(4):1528-1531), was assessed against 3 P. aeruginosa strains (APAE001, APAE002, APAE006). APAE001 is Pseudomonas aeruginosa ATCC27853; APAE002 is a wildtype lab strain of Pseudomonas aeruginosa known as PAM1020 or PA01. APAE006 is a strain of […]/PA01 with efflux deletions: delta mexAB-oprM::CM delta CD-oprJ::Gm delta mexEF-oprN::omega Hg. Lomovskaya, 0 et al. 1999. Use of a Genetic Approach To Evaluate the Consequences of Inhibition of Efflux Pumps in P aeruginosa. Antimicrob. Agents Chemother. 43: 1340-1346.
The standard procedure described in Susceptibility Testing was utilized with one adjustment, specifically 2% HSA and 0.05% AGP were added to the cation adjusted Mueller-Hinton Broth. The MIC for each strain of interest was then assessed in the presence and absence of HSA/AGP. Following MIC determination, the fold change in MIC was determined for each individual strain by dividing the MIC in the presence of HSA/AGP by the MIC in the absence of HSA/AGP. The protein binding Geomean was then calculated using these 3 values.

[3] = APAE1096 is a clinical isolate, broth microdilution, read-out: Minimum Inhibitory Concentrations (MICs) APAE1096
[4] = Pseudomonas aeruginosa, APAE002 is a wildtype lab strain of Pseudomonas aeruginosa known as PAM1020 or PA01, broth microdilution, read-out: Minimum Inhibitory Concentrations (MICs) APAE002
[5] = Pseudomonas aeruginosa, ATCC27853, APAE001 is Pseudomonas aeruginosa ATCC27853, broth microdilution, read-out: Minimum Inhibitory Concentrations (MICs) APAE001

| Structure (SMILES) | MIC [1, 3] [µg/mL] | MIC [1, 4] [µg/mL] | MIC [1, 5] [µg/mL] | Protein Binding PB (Geomean of fold change in MIC) [2] | MIC ([1]; Pseudomonas aeruginosa, ATCC27853, read-out: Minimum Inhibitory Concentrations (MICs) APAE001) [µg/mL] | MIC ([1]; Pseudomonas aeruginosa, read-out: Minimum Inhibitory Concentrations (MICs) APAE002) [µg/mL] | MIC ([1]; read-out: Minimum Inhibitory Concentrations (MICs) APAE1096) [µg/mL] |
| --- | --- | --- | --- | --- | --- | --- | --- |
| CC(C)(N)[C@H](NC(=O)c1ccc(C#CCO)cc1)C(=O)NO [Compound 2, (S)—N-(3-amino-1-(hydroxyamino)-3-methyl-1-oxobutan-2-yl)-4-(3-hydroxyprop-1-ynyl)benzamide] | 8 to 16 (≈ 26.2 to 52.4 µM) | 1 to 8 (≈ 3.28 to 26.2 µM) | < 1 | 1.3 |  |  |  |
| CC(C)(N)[C@H](NC(=O)c1ccc(C#CC#C[C@H]2CC2(CO)CO)cc1)C(=O)NO [Compound 24, N—((S)-3-amino-1-(hydroxyamino)-3-methyl-1-oxobutan-2-yl)-4-(((R)-2,2-bis(hydroxymethyl)cyclopropyl)buta-1,3-diynyl)benzamide] | 1 to 8 (≈ 2.5 to 20 µM) | 1 to 8 (≈ 2.5 to 20 µM) | 1 to 8 (≈ 2.5 to 20 µM) | 2.5 |  |  |  |
| CN[C@H](C)[C@H](NC(=O)c1ccc(C#CC#C[C@H](C)O)cc1)C(=O)NO [Compound 49, N-((2S,3R)-1-(hydroxyamino)-3-(methylamino)-1-oxobutan-2-yl)-4-((S)-5-hydroxyhexa-1,3-diyn-1-yl)benzamide] | 1 to 8 (≈ 2.91 to 23.3 µM) | < 1 | < 1 | 2.0 |  |  |  |
| CC(C)(O)[C@H](NC(=O)c1ccc(C#CC#CCCO)cc1)C(=O)NO [Compound 34, (S)—N-(3-hydroxy-1-(hydroxyamino)-3-methyl-1-oxobutan-2-yl)-4-(6-hydroxyhexa-1,3-diynyl)benzamide] | 1 to 8 (≈ 2.9 to 23.2 µM) | < 1 | < 1 | 2.8 |  |  |  |
| CC(C)(N)[C@H](NC(=O)c1ccc(C#CC#CC(O)C2CC2CO)cc1)C(=O)NO (stereo partly drawn) [Compound 26, N—((S)-3-amino-1-(hydroxyamino)-3-methyl-1-oxobutan-2-yl)-4-(5-hydroxy-5-(2-(hydroxymethyl)cyclopropyl)penta-1,3-diynyl)benzamide] | 1 to 8 (≈ 2.5 to 20 µM) | < 1 | < 1 | 6.4 |  |  |  |
| CC(C)(N)[C@H](NC(=O)c1ccc(C#CC#CC[C@H](O)CO)cc1)C(=O)NO [Compound 36, N—((S)-3-amino-1-(hydroxyamino)-3-methyl-1-oxobutan-2-yl)-4-((S)-6,7-dihydroxyhepta-1,3-diyn-1-yl)benzamide] |  |  |  | 2.3 | < 1 | < 1 | 1 to 8 (≈ 2.68 to 21.4 µM) |
| CC(C)(N)[C@H](NC(=O)c1ccc(C#CC#C[C@]2(O)C[C@@H](CO)C2)cc1)C(=O)NO [Compound 27, N—((S)-3-amino-1-(hydroxyamino)-3-methyl-1-oxobutan-2-yl)-4-(((1S,3R)-1-hydroxy-3-(hydroxymethyl)cyclobutyl)buta-1,3-diynyl)benzamide] | 1 to 8 (≈ 2.5 to 20 µM) | < 1 | < 1 | 1.8 |  |  |  |
| CC(C#CC#Cc1ccc(C(=O)N[C@H](C(=O)NO)C(C)(C)N)cc1)C(O)CO (single isomer, unassigned) [Compound 20A] | 8 to 16 (≈ 20.6 to 41.3 µM) | 1 to 8 (≈ 2.58 to 20.6 µM) | 1 to 8 (≈ 2.58 to 20.6 µM) | 2.0 |  |  |  |
| CC(C)(N)[C@H](NC(=O)c1ccc(C#CC#C[C@H]2[C@@H](CO)[C@H]2CO)cc1)C(=O)NO [Compound 23B, N—((S)-3-amino-1-(hydroxyamino)-3-methyl-1-oxobutan-2-yl)-4-(((1R,2R,3S)-2,3-bis(hydroxymethyl)cyclopropyl)buta-1,3-diynyl)benzamide] | 8 to 16 (≈ 20 to 40.1 µM) | 1 to 8 (≈ 2.5 to 20 µM) | 1 to 8 (≈ 2.5 to 20 µM) | 2.0 |  |  |  |
| C[C@H](O)C#CC#Cc1ccc(C(=O)N[C@H](C(=O)NO)[C@@H](C)N)cc1 [Compound 41, N-((2S,3R)-3-amino-1-(hydroxyamino)-1-oxobutan-2-yl)-4-((S)-5-hydroxyhexa-1,3-diyn-1-yl)benzamide] | 1 to 8 (≈ 3.04 to 24.3 µM) | < 1 | < 1 | 2 |  |  |  |
| CC(C)(N)[C@H](NC(=O)c1ccc(C#CC#C[C@H]2CC[C@@](O)(CO)CC2)cc1)C(=O)NO [Compound 33A, N—((S)-3-amino-1-(hydroxyamino)-3-methyl-1-oxobutan-2-yl)-4-(((1S,4R)-4-hydroxy-4-(hydroxymethyl)cyclohexyl)buta-1,3-diynyl)benzamide] | 8 to 16 (≈ 18.7 to 37.4 µM) | < 1 | 1 to 8 (≈ 2.34 to 18.7 µM) | 2.6 |  |  |  |
| CN[C@H](C)[C@H](NC(=O)c1ccc(C#CC#CCO)cc1)C(=O)NO [Compound 56, N-((2S,3R)-1-(hydroxyamino)-3-(methylamino)-1-oxobutan-2-yl)-4-(5-hydroxypenta-1,3-diyn-1-yl)benzamide] | 1 to 8 (≈ 3.04 to 24.3 µM) | < 1 | < 1 | 2.5 |  |  |  |
| C[C@H](O)C#CC#Cc1ccc(C(=O)N[C@H](C(=O)NO)[C@@H](N)C(F)(F)F)cc1 [Compound 59, N-((2S,3R)-3-amino-4,4,4-trifluoro-1-(hydroxyamino)-1-oxobutan-2-yl)-4-((S)-5-hydroxyhexa-1,3-diyn-1-yl)benzamide] | 1 to 8 (≈ 2.61 to 20.9 µM) | < 1 | 1 to 8 (≈ 2.61 to 20.9 µM) | 3.2 |  |  |  |
| CC(C)(N)[C@H](NC(=O)c1ccc(C#CC#CC2C[C@H]2C(O)CO)cc1)C(=O)NO (mixture of isomers) [Compound 25, N—((S)-3-amino-1-(hydroxyamino)-3-methyl-1-oxobutan-2-yl)-4-((2-(1,2-dihydroxyethyl)cyclopropyl)buta-1,3-diynyl)benzamide] | 1 to 8 (≈ 2.5 to 20 µM) | < 1 | < 1 | 11.5 |  |  |  |
| CC(C)(N)[C@H](NC(=O)c1ccc(C#C/C=C/CC(O)CO)cc1)C(=O)NO (stereo partly drawn) [Compound 52, N—((S)-3-amino-1-(hydroxyamino)-3-methyl-1-oxobutan-2-yl)-4-((E)-6,7-dihydroxyhept-3-en-1-yn-1-yl)benzamide] | 8 to 16 (≈ 21.3 to 42.6 µM) | 1 to 8 (≈ 2.66 to 21.3 µM) | 1 to 8 (≈ 2.66 to 21.3 µM) | 1.0 |  |  |  |
| CC(C)(N)[C@H](NC(=O)c1ccc(C#C/C=C/CCO)cc1)C(=O)NO [Compound 55, (S,E)-N-(3-amino-1-(hydroxyamino)-3-methyl-1-oxobutan-2-yl)-4-(6-hydroxyhex-3-en-1-yn-1-yl)benzamide] | 1 to 8 (≈ 2.9 to 23.2 µM) | < 1 | < 1 | 2.0 |  |  |  |
| CNC(C)(C)[C@H](NC(=O)c1ccc(C#CC#CC[C@@H](O)CO)cc1)C(=O)NO [Compound 44, 4-((R)-6,7-dihydroxyhepta-1,3-diyn-1-yl)-N—((S)-1-(hydroxyamino)-3-methyl-3-(methylamino)-1-oxobutan-2-yl)benzamide] | 1 to 8 (≈ 2.58 to 20.6 µM) | < 1 | < 1 | 2.0 |  |  |  |
